Consider seven molecules from patent US12390440B2, “Immunomodulating trifluoromethyl-aminal azalides” (Zoetis Services LLC, priority 2020, dated 2025).

Data set [1] concerns IL-6. As to the kind of experiment: Bovine whole blood assay, IL-6. It counts as cell-based. The conditions noted are these: Bos taurus, fresh whole bovine blood, LPS 1 μg/mL. The protocol:
(§1) (protected from light) for 30 minutes.

Data set [2] has as its system TNF-α. As to the kind of experiment: Bovine whole blood assay, LPS-induced TNF-α. It counts as cell-based. The conditions noted are these: Bos taurus, fresh whole bovine blood, LPS 1 μg/mL. The protocol:
as §1

Data set [3] has as its system IL-1β. As to the kind of experiment: Bovine whole blood assay, IL-1β.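 Also: compound concentration at which rising IL-1β release signals cytotoxicity.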 It counts as cell-based. As to conditions: overstimulation of IL-1β, perceived cellular toxicity concentration. The protocol: as §1
The test system of data set [4] is BRD pathogens, M. haemolytica and P. multocida. Nature of the data set: MIC screening panel, BRD pathogens (CLSI broth micro-dilution). As to conditions: read-out: MIC flag (*) at Ex #. (In general: In broth dilution the organism is exposed to a series of concentrations in liquid medium.)

Each structure is given as a SMILES string.

As usually defined, the IC50 is the concentration at which inhibition is half-maximal. Lower therefore signals higher potency. In the case of `CC[C@H]1OC(=O)[C@H](C)[C@@H](O[C@H]2C[C@@](C)(OC)[C@](O)(CNC(CO)CO)[C@H](C)O2)[C@H](C)[C@@H](O[C@@H]2O[C@H](C)C[C@H]3[C@H]2OC(C(F)(F)F)N3C)[C@](C)(O)C[C@@H](C)CN[C@H](C)[C@@H](O)[C@]1(C)O` (stereo partly drawn) [Example A-4, (2R,3S,4R,5R,8R,10R,11R,12S,13S,14R)-13-(((2R,4R,5S,6S)-5-(((1,3-dihydroxypropan-2-yl)amino)methyl)-5-hydroxy-4-methoxy-4,6-dimethyltetrahydro-2H-pyran-2-yl)oxy)-11-(((3aR,4S,6R,7aS)-1,6-dimethyl-2-(trifluoromethyl)hexahydro-2H-pyrano[4,3-d]oxazol-4-yl)oxy)-2-ethyl-3,4,10-trihydroxy-3,5,8,10,12,14-hexamethyl-1-oxa-6-azacyclopentadecan-15-one], the half-maximal inhibitory concentration (IC50) stood at 200 µM in data set [1] and 40 µM in data set [2]. In addition, in data set [3], the “IL-1β OS of LPS” value is 80 µM.

`CC[C@H]1OC(=O)[C@H](C)[C@@H](O[C@H]2C[C@@](C)(OC)[C@](O)(CNCCS(C)(=O)=O)[C@H](C)O2)[C@H](C)[C@@H](O[C@@H]2O[C@H](C)C[C@H]3[C@H]2OC(C(F)(F)F)N3C)[C@](C)(O)C[C@@H](C)CN[C@H](C)[C@@H](O)[C@]1(C)O` (stereo partly drawn) [Example A-9, (2R,3S,4R,5R,8R,10R,11R,12S,13S,14R)-11-(((3aR,4S,6R,7aS)-1,6-dimethyl-2-(trifluoromethyl)hexahydro-2H-pyrano[4,3-d]oxazol-4-yl)oxy)-2-ethyl-3,4,10-trihydroxy-13-(((2R,4R,5S,6S)-5-hydroxy-4-methoxy-4,6-dimethyl-5-(((2-(methylsulfonyl)ethyl)amino)methyl)tetrahydro-2H-pyran-2-yl)oxy)-3,5,8,10,12,14-hexamethyl-1-oxa-6-azacyclopentadecan-15-one]: the values for the concentration for half-maximal inhibition (IC50) in data set [1] and in data set [2] were 70 µM and 28 µM, respectively. Further, the “IL-1β OS of LPS” value in data set [3] was found to be 40 µM.

In the case of `CC[C@H]1OC(=O)[C@H](C)[C@@H](O[C@H]2C[C@@](C)(OC)[C@](O)(CNCC3CCC(=O)N3)[C@H](C)O2)[C@H](C)[C@@H](O[C@@H]2O[C@H](C)C[C@H]3[C@H]2OC(C(F)(F)F)N3C)[C@](C)(O)C[C@@H](C)CN[C@H](C)[C@@H](O)[C@]1(C)O` (stereo partly drawn) [Example A-21, (2R,3S,4R,5R,8R,10R,11R,12S,13S,14R)-11-(((3aR,4S,6R,7aS)-1,6-dimethyl-2-(trifluoromethyl)hexahydro-2H-pyrano[4,3-d]oxazol-4-yl)oxy)-2-ethyl-3,4,10-trihydroxy-13-(((2R,4R,5S,6S)-5-hydroxy-4-methoxy-4,6-dimethyl-5-((((5-oxopyrrolidin-2-yl)methyl)amino)methyl)tetrahydro-2H-pyran-2-yl)oxy)-3,5,8,10,12,14-hexamethyl-1-oxa-6-azacyclopentadecan-15-one], the half-inhibitory concentration (IC50) in data set [1] is 78 µM; in data set [2], 80 µM. In addition, in data set [3], the “IL-1β OS of LPS” value came out at 32 µM.

`CC[C@H]1OC(=O)[C@H](C)[C@@H](O[C@H]2C[C@@](C)(OC)[C@](O)(CNCCN3CCOC3=O)[C@H](C)O2)[C@H](C)[C@@H](O[C@@H]2O[C@H](C)C[C@H]3[C@H]2OC(C(F)(F)F)N3C)[C@](C)(O)C[C@@H](C)CN[C@H](C)[C@@H](O)[C@]1(C)O` (stereo partly drawn) [Example A-24, (2R,3S,4R,5R,8R,10R,11R,12S,13S,14R)-11-(((3aR,4S,6R,7aS)-1,6-dimethyl-2-(trifluoromethyl)hexahydro-2H-pyrano[4,3-d]oxazol-4-yl)oxy)-2-ethyl-3,4,10-trihydroxy-13-(((2R,4R,5S,6S)-5-hydroxy-4-methoxy-4,6-dimethyl-5-(((2-(2-oxooxazolidin-3-yl)ethyl)amino)methyl)tetrahydro-2H-pyran-2-yl)oxy)-3,5,8,10,12,14-hexamethyl-1-oxa-6-azacyclopentadecan-15-one]: the figures for the half-inhibitory concentration (IC50) in data set [1] and in data set [2] were 29 µM and 70 µM, respectively. The “IL-1β OS of LPS” value in data set [3] was determined as 40 µM.

The MIC is the lowest concentration found to suppress growth. With `CC[C@H]1OC(=O)[C@H](C)[C@@H](O[C@H]2C[C@@](C)(OC)[C@](O)(CNCCCNS(C)(=O)=O)[C@H](C)O2)[C@H](C)[C@@H](O[C@@H]2O[C@H](C)C[C@H]3[C@H]2OC(C(F)(F)F)N3C)[C@](C)(O)C[C@@H](C)CN[C@H](C)[C@@H](O)[C@]1(C)O` (stereo partly drawn) [Example A-23, N-(3-((((2S,3S,4R,6R)-6-(((2R,3S,4R,5R,8R,10R,11R,12S,13S,14R)-11-(((3aR,4S,6R,7aS)-1,6-dimethyl-2-(trifluoromethyl)hexahydro-2H-pyrano[4,3-d]oxazol-4-yl)oxy)-2-ethyl-3,4,10-trihydroxy-3,5,8,10,12,14-hexamethyl-15-oxo-1-oxa-6-azacyclopentadecan-13-yl)oxy)-3-hydroxy-4-methoxy-2,4-dimethyltetrahydro-2H-pyran-3-yl)methyl)amino)propyl)methanesulfonamide], the midpoint of inhibition in data set [2], the IC50, lay at 134 µM. Besides, in data set [4], the MIC was under 64 µg/mL. For the same molecule, the “IL-1β OS of LPS” value in data set [3] amounted to 40 µM.

In the case of `CC[C@H]1OC(=O)[C@H](C)[C@@H](O[C@H]2C[C@@](C)(OC)[C@](O)(CNCc3ncc[nH]3)[C@H](C)O2)[C@H](C)[C@@H](O[C@@H]2O[C@H](C)C[C@H]3[C@H]2OC(C(F)(F)F)N3C)[C@](C)(O)C[C@@H](C)CN[C@H](C)[C@@H](O)[C@]1(C)O` (stereo partly drawn) [Example A-11, (2R,3S,4R,5R,8R,10R,11R,12S,13S,14R)-13-(((2R,4R,5S,6S)-5-((((1H-imidazol-2-yl)methyl)amino)methyl)-5-hydroxy-4-methoxy-4,6-dimethyltetrahydro-2H-pyran-2-yl)oxy)-11-(((3aR,4S,6R,7aS)-1,6-dimethyl-2-(trifluoromethyl)hexahydro-2H-pyrano[4,3-d]oxazol-4-yl)oxy)-2-ethyl-3,4,10-trihydroxy-3,5,8,10,12,14-hexamethyl-1-oxa-6-azacyclopentadecan-15-one], the IC50 in data set [2] came out at 101 µM. In addition, in data set [4], the MIC is under 64 µg/mL. The “IL-1β OS of LPS” value in data set [3] came out at 40 µM.

The molecule `CC[C@H]1OC(=O)[C@H](C)[C@@H](O[C@H]2C[C@@](C)(OC)[C@](O)(CNCCn3cncn3)[C@H](C)O2)[C@H](C)[C@@H](O[C@@H]2O[C@H](C)C[C@H]3[C@H]2OC(C(F)(F)F)N3C)[C@](C)(O)C[C@@H](C)CN[C@H](C)[C@@H](O)[C@]1(C)O` (stereo partly drawn) [Example A-14, (2R,3S,4R,5R,8R,10R,11R,12S,13S,14R)-13-(((2R,4R,5S,6S)-5-(((2-(1H-1,2,4-triazol-1-yl)ethyl)amino)methyl)-5-hydroxy-4-methoxy-4,6-dimethyltetrahydro-2H-pyran-2-yl)oxy)-11-(((3aR,4S,6R,7aS)-1,6-dimethyl-2-(trifluoromethyl)hexahydro-2H-pyrano[4,3-d]oxazol-4-yl)oxy)-2-ethyl-3,4,10-trihydroxy-3,5,8,10,12,14-hexamethyl-1-oxa-6-azacyclopentadecan-15-one] yielded a concentration for half-maximal inhibition (IC50) in data set [2] of 30 µM. Further, in data set [4], the minimal inhibitory concentration (MIC) is under 64 µg/mL. The “IL-1β OS of LPS” value in data set [3] amounted to 40 µM.
